Residues, ends and D or L forms follow the SMILES beside them.
Columns and labels:
HIV-1IIIB = assay: HIV-1 antiviral assay (CPE reduction) in CEM-SS cells; format: cell-based; settings: peptide 10 micrograms per ml; 6 days post-infection; MTS readout
CEM-SS cells = assay: Cytotoxicity (MTS cell viability) in the HIV-1 assay; settings: peptide 10 micrograms per ml
[1] = tested on: hepatitis B virus (HBV) ayw strain; assay: HBV replication assay in HepG2-2.2.15 cells (TaqMan PCR of secreted HBV DNA); format: cell-based; settings: peptide 10 micrograms per ml, six days, HBV DNA in supernatant
[2] = Cell viability (dye uptake) in the HBV assay; format: cell-based; settings: human, HepG2-2.2.15 cells, peptide 10 micrograms per ml
Human A549 cells [3] = assay: Propidium iodide cell cycle assay; format: cell-based; settings: 10 micrograms per ml, 24 hours, FACS
[4] = tested on: Human Peripheral Blood Mononuclear Cells (PBMC), B cell proliferation; assay: B cell proliferation assay (SAC plus IL-2 stimulated PBMC, 3H-thymidine); format: cell-based; settings: 10 micrograms per ml
RAW 264.7 cells = assay: Phagocytosis assay (Fluorescein-labeled Escherichia coli, flow cytometry); format: cell-based, mouse; settings: 10 micrograms per ml, Fluorescein-labeled E. coli
Procedure: The samples were then analyzed by flow cytometry to determine the amount of phagocytosis as a function of brightness (the greater the phagocytic activity, the more fluorescence in the macrophage population). Data are reported as % positive and the mean fluorescence intensity (MFI) of positively stained cells.

Human A549 cells [5] = assay: Apoptosis induction assay (Annexin-5); format: cell-based; settings: 24 hours
Procedure: Human A549 cells (carcinomic human alveolar basal epithelial cells) were utilized in the experiments employing the Annexin-5 apoptosis assay. […] Test peptide-micrograms per ml—were exposed for 24 hours to the A549 cells before they were analyzed for signs of apoptosis.

Human A549 cells [6] = assay: Apoptosis prevention assay (C2 ceramide, Annexin-5); format: cell-based; settings: 10 micrograms per ml pretreatment 30 min
Excerpt: Human A549 cells (carcinomic human alveolar basal epithelial cells) were utilized in the experiments employing the Annexin-5 apoptosis assay.

[7] = tested on: spleen cells of Ovalbumin-immunized Balb/c mice; assay: Th1/Th2 cytokine profiling assay (Ovalbumin-restimulated spleen cells, CBA kit); format: cell-based, mouse; settings: 10 micrograms per ml; Ovalbumin restimulation; 72 hours
[8] = tested on: macrophages differentiated from human PBMC, TNF alpha production; assay: TNF alpha production assay (LPS-stimulated macrophages, ELISA); format: cell-based; settings: 10 micrograms per ml, lipopolysaccharide 200 ng/ml, overnight
Excerpt: Not stimulated macrophages served as negative background control.

[9] = tested on: Primary Human endothelial cells (HUVEC); assay: Endothelial cell migration assay; format: cell-based; settings: 10 micrograms per ml, 22 hours
HUVEC = assay: Endothelial tube formation assay; format: cell-based, human; settings: 10 micrograms per ml, 20 hours
Excerpt: Positive control was vehicle only.

[10] = tested on: human peripheral blood mononuclear cells (PBMC), cyclic AMP generation; assay: cAMP induction assay (ELISA); format: cell-based; settings: 10 min at 37° C., forskolin 50 micrograms per ml
Procedure: The cAMP kit was used as an immunoassay for the quantitative determination of cyclic AMP generation in human peripheral blood mononuclear cells (PBMC). PBMC were placed in 96-well microtitier plates (50 microliters of cells at 4×10^6/ml) and 50 microliters of medium alone (background control), forskolin (cAMP positive control; 50 micrograms per ml), or test peptide were added. […] NaOH was added to neutralize the samples. Plates were centrifuged for 15 min at 2500 rpm and the supernatants removed. The supernatants (diluted 2-fold in assay buffer) were then assayed for the levels of cAMP by ELISA.

in vitro [11] = settings: human, CEM-SS cells (uninfected; cells plus peptide only)
in vitro [12] = settings: human, MRC-5 cells (embryonal lung fibroblasts)
HCMV strain AD169 = assay: HCMV plaque reduction assay in MRC-5 cells; settings: HCMV AD169 in MRC-5 cells; peptide 10 micrograms per ml; 7-10 days
[13] = tested on: Human Peripheral Blood Mononuclear Cells (PBMC), T cell proliferation; assay: T cell proliferation assay (PHA-stimulated PBMC, 3H-thymidine); settings: 10 micrograms per ml
HepG2-2.2.15 cells = assay: Cell viability (dye uptake) in the HBV assay; format: cell-based; settings: peptide 10 micrograms per ml

Cc1cn([C@H]2C[C@H](N=[N+]=[N-])[C@@H](CO)O2)c(=O)[nH]c1=O [AZT, reference compound]
% CPE reduction in HIV-1 infected CEM-SS cells (HIV-1IIIB): 99% | % Cell viability (CEM-SS cells): 97%

CC[C@H](C)[C@H](NC(=O)[C@H](C)NC(=O)CNC(=O)[C@H](CCCNC(=N)N)NC(=O)[C@H](C)NC(=O)[C@H](CC(C)C)NC(=O)[C@H](CCC(=O)O)NC(=O)[C@H](CC(C)C)NC(=O)[C@H](C)NC(=O)[C@@H](N)CCC(=O)O)C(=O)N[C@@H](Cc1ccccc1)C(=O)N[C@@H](CCC(N)=O)C(=O)N[C@@H](C)C(N)=O [BINP] (H-EALELARGAIFQA-NH2)
% CPE reduction in HIV-1 infected CEM-SS cells (HIV-1IIIB): 0.0% | % inhibition of HBV replication in HEP G2 cells [1]: 8.2% | viability at 144 h, 10 micrograms per ml [2]: 96.9% | Cell cycle analysis G0/G1 (Human A549 cells [3]): 57.9 | Cell cycle analysis G2/M (Human A549 cells [3]): 12.2 | Cell cycle analysis S (Human A549 cells [3]): 29.9 | % of SAC/IL2 induced control [4]: 96.5% | % of control phagocytosis (RAW 264.7 cells): 134.3% | % of induction (Human A549 cells [5]): 0.2% | % prevention of ceramide induced apoptosis (Human A549 cells [6]): 0.0% | IFNγ spleen cells; TH1 response (% of control) [7]: 133.9 % of control | IL-2 spleen cells (% of control) [7]: 0.0 % of control | IL-4 spleen cells; TH2 response (% of control) [7]: 0.0 % of control | IL-5 spleen cells; TH2 response (% of control) [7]: 50.3 % of control | TNF-a spleen cells; TH1 response (% of control) [7]: 97.0 % of control | % of LPS induction [8]: 102.3% | % inhibition of migration [9]: 8% | % inhibition of tube formation (HUVEC): −1% | % of Forskolin (positive control) induced cAMP formation [10]: 44.3% | viability at 10 micrograms per ml (in vitro [11]): 99.1% | viability at 144 h (in vitro [12]): 99.7% | % plaque reduction (HCMV strain AD169): 1.0% | % of PHA induced Control [13]: 96.2%

Nc1ccn([C@@H]2CS[C@H](CO)O2)c(=O)n1 [Compound 3TC, Lamivudine, reference compound]
% Cell viability (HepG2-2.2.15 cells): 95.8%

Source: patent US20100256043A1, “USE OF A PEPTIDE AS A THERAPEUTIC AGENT” (priority 2007, published 2010)
